Test results from PubChem BioAssay AID330 (DTP/NCI, 2004).
Several values for one entry are separate records, joined by “and”; a condition that tells them apart may be missing. Identical values can stand only once. Toxic doses and inconclusive results are not listed. The calls were made as follows: active = survival T/C of 150% or more; inactive = T/C below 125% in these data. Square brackets hold non-standard residues; d marks the D form. Peptide text beside a SMILES is read from it. * marks the point of attachment. ξ: configuration not given here. ξF = NC(Cc1ccccc1)C(=O)O; Cbz = O=C(OCc1ccccc1)*

Test system: P388 leukemia ip, CD2F1 mice, survival T/C
Assay: NCI In Vivo Anticancer Drug Screen. Data for tumor model P388 Leukemia (intraperitoneal) in CD2F1 (CDF1) mice
Details: endpoint: median survival time, higher = longer survival
Method in brief: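 Mice carrying the transplanted tumor received test compound or vehicle. Survival was recorded in each group, and the value is the treated-group measurement divided by that of the vehicle-treated control group.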

[1] = dose: 30.0 mg/kg/injection, schedule: Q01DX005 (ip), vehicle: saline
[2] = dose: 60.0 mg/kg/injection, schedule: Q01DX005 (ip), vehicle: saline
[3] = dose: 50.0 mg/kg/injection, schedule: Q01DX005 (ip), vehicle: saline with Tween-80
[4] = dose: 100.0 mg/kg/injection, schedule: Q01DX005 (ip), vehicle: saline with Tween-80
[5] = dose: 200.0 mg/kg/injection, schedule: Q01DX005 (ip), vehicle: saline with Tween-80
[6] = dose: 60.0 mg/kg/injection, schedule: Q01DX005 (ip), vehicle: Klucel (hydroxypropylcellulose) (HPC)
[7] = dose: 120.0 mg/kg/injection, schedule: Q01DX005 (ip), vehicle: Klucel (hydroxypropylcellulose) (HPC)
[8] = dose: 240.0 mg/kg/injection, schedule: Q01DX005 (ip), vehicle: Klucel (hydroxypropylcellulose) (HPC)
[9] = dose: 100.0 mg/kg/injection, schedule: Q01DX001 (ip), vehicle: saline with Tween-80
[10] = dose: 200.0 mg/kg/injection, schedule: Q01DX001 (ip), vehicle: saline with Tween-80
[11] = dose: 6.25 mg/kg/injection, schedule: Q01DX009 (ip), vehicle: saline
[12] = dose: 12.5 mg/kg/injection, schedule: Q01DX009 (ip), vehicle: saline
[13] = dose: 25.0 mg/kg/injection, schedule: Q01DX009 (ip), vehicle: saline

Measured: T/C

COc1cc(C2c3cc4c(cc3OC(C)(OC)C2C)OCO4)cc(OC)c1OC (stereo unspecified)
inactive: dose: 1.8 mg/kg/injection, schedule: Q01DX005 (ip), vehicle: saline 103 % of control | dose: 3.75 mg/kg/injection, schedule: Q01DX005 (ip), vehicle: saline 98 % of control | dose: 7.5 mg/kg/injection, schedule: Q01DX005 (ip), vehicle: saline 93 % of control | dose: 15.0 mg/kg/injection, schedule: Q01DX005 (ip), vehicle: saline 91 % of control | [1] 89 % of control | [2] 102 % of control and 86 % of control | dose: 120.0 mg/kg/injection, schedule: Q01DX005 (ip), vehicle: saline 86 % of control | dose: 240.0 mg/kg/injection, schedule: Q01DX005 (ip), vehicle: saline 92 % of control

C=CCNC(=S)N\N=C/C(/C=C/c1ccccc1)=N\NC(=S)NCC=C
inactive: dose: 100.0 mg/kg/injection, schedule: Q04DX002 (ip), vehicle: Klucel (hydroxypropylcellulose) (HPC) 103 % of control | dose: 200.0 mg/kg/injection, schedule: Q04DX002 (ip), vehicle: Klucel (hydroxypropylcellulose) (HPC) 91 % of control | dose: 400.0 mg/kg/injection, schedule: Q04DX002 (ip), vehicle: Klucel (hydroxypropylcellulose) (HPC) 91 % of control

CC1(C)C2CCC(O2)C(C)(C)C2CCC(O2)C(C)(C)C2CCC(O2)C(C)(C)C2CCC1O2
inactive: [3] 102 % of control | [4] 100 % of control | [5] 95 % of control

CCN(CC)CCN1C(=O)C2C3C=CC(C2C1=O)C1C2C(=O)N(CCN(CC)CC)C(=O)C2C31 (stereo unspecified)
inactive: dose: 6.25 mg/kg/injection, schedule: Q01DX009 (ip), vehicle: water 104 % of control | dose: 12.5 mg/kg/injection, schedule: Q01DX009 (ip), vehicle: water 99 % of control and 100 % of control | dose: 25.0 mg/kg/injection, schedule: Q01DX009 (ip), vehicle: water 100 % of control and 111 % of control | dose: 50.0 mg/kg/injection, schedule: Q01DX009 (ip), vehicle: water 99 % of control and 103 % of control | dose: 100.0 mg/kg/injection, schedule: Q01DX009 (ip), vehicle: water 101 % of control and 111 % of control

CC(C)(C)C(=O)OCn1cc2c(=O)[nH]cnc2n1
inactive: [6] 101 % of control | [7] 100 % of control | [8] 104 % of control

NC(CCS)C(=O)O (stereo unspecified)
inactive: [3] 90 % of control | [4] 92 % of control

Cc1ccccc1C1(C)C(=O)c2ccccc2C1=O
inactive: dose: 100.0 mg/kg/injection, schedule: Q04DX002 (ip), vehicle: saline 101 % of control | dose: 200.0 mg/kg/injection, schedule: Q04DX002 (ip), vehicle: saline 106 % of control | dose: 400.0 mg/kg/injection, schedule: Q04DX002 (ip), vehicle: saline 100 % of control

C1=C(/c2ccccc2)NCCN=C(c2ccccc2)CS/1
inactive: [3] 104 % of control | [4] 101 % of control | [5] 101 % of control

CN(C(=S)S(=O)(=O)C12CC3CC(CC(C3)C1)C2)c1ccccc1
inactive: dose: 12.5 mg/kg/injection, schedule: Q01DX009 (ip), vehicle: Klucel (hydroxypropylcellulose) (HPC) 118 % of control | dose: 50.0 mg/kg/injection, schedule: Q01DX009 (ip), vehicle: Klucel (hydroxypropylcellulose) (HPC) 124 % of control

O=C(O)CNC(=O)CNC(=O)C(Cc1ccccc1)NC(=O)OCc1ccccc1 (stereo not drawn) (Cbz-[ξF]-Gly-Gly-OH)
inactive: [3] 100 % of control | [4] 99 % of control | [5] 91 % of control

CC(=O)OCc1c(Cl)nc2sccn12
inactive: dose: 100.0 mg/kg/injection, schedule: Q01DX001 (ip), vehicle: Klucel (hydroxypropylcellulose) (HPC) 104 % of control and 108 % of control | dose: 200.0 mg/kg/injection, schedule: Q01DX001 (ip), vehicle: Klucel (hydroxypropylcellulose) (HPC) 109 % of control and 117 % of control

COc1cc(C)c(/C(=N/O)n2nnc(-c3ccc(C)cc3)n2)c(C)c1
inactive: [9] 92 % of control | [10] 91 % of control

COc1cc(N2C(N)=NC(N)=NC2(C)C)cc(OC)c1OC
inactive: [11] 100 % of control | [12] 95 % of control | [13] 90 % of control

N#Cc1c(-c2ccccc2)sc2ccccc2c1=O
inactive: [9] 99 % of control | [10] 93 % of control | dose: 400.0 mg/kg/injection, schedule: Q01DX001 (ip), vehicle: saline with Tween-80 98 % of control

COc1cccc(-c2nc3n(n2)CCc2ccccc2-3)c1
inactive: dose: 50.0 mg/kg/injection, schedule: Q01DX009 (ip), vehicle: saline with Tween-80 105 % of control | dose: 100.0 mg/kg/injection, schedule: Q01DX009 (ip), vehicle: saline with Tween-80 106 % of control | dose: 200.0 mg/kg/injection, schedule: Q01DX009 (ip), vehicle: saline with Tween-80 86 % of control

NC(=O)CCNC(=O)CCCNC(=O)CCC[c-]1[c-][c-][c-][c-]1.[Fe].[c-]1[c-][c-][cH-][c-]1
inactive: dose: 12.5 mg/kg/injection, schedule: Q01DX009 (ip), vehicle: distilled water + Tween-80 111 % of control and 119 % of control | dose: 25.0 mg/kg/injection, schedule: Q01DX009 (ip), vehicle: distilled water + Tween-80 115 % of control | dose: 100.0 mg/kg/injection, schedule: Q01DX009 (ip), vehicle: distilled water + Tween-80 123 % of control

CCCCC(/C=N/NC(N)=S)C(=O)OCC (stereo unspecified)
inactive: [6] 102 % of control | [7] 100 % of control | [8] 100 % of control

S=C1N(c2ccc(Br)cc2)C2=Nc3ccccc3SC(=C2N=Nc2ccccc2)N1c1ccc(Cl)cc1
inactive: [3] 94 % of control | [4] 90 % of control | [5] 93 % of control

CN(C)c1ccc(C=C2C(=O)N(c3ccccc3)C(=S)N(c3ccccc3)C2=O)cc1
inactive: [6] 90 % of control | [7] 92 % of control | [8] 92 % of control

CCN(CC)CCN(C(=O)C1c2ccccc2Oc2ccccc21)C1CCCCC1
inactive: dose: 12.5 mg/kg/injection, schedule: Q01DX005 (ip), vehicle: Klucel (hydroxypropylcellulose) (HPC) 101 % of control | dose: 25.0 mg/kg/injection, schedule: Q01DX005 (ip), vehicle: Klucel (hydroxypropylcellulose) (HPC) 100 % of control | dose: 50.0 mg/kg/injection, schedule: Q01DX005 (ip), vehicle: Klucel (hydroxypropylcellulose) (HPC) 98 % of control and 92 % of control

CCCC(OC(C)=O)c1coc(C)c1 (stereo unspecified)
inactive: dose: 100.0 mg/kg/injection, schedule: Q01DX001 (ip), vehicle: saline 104 % of control | dose: 200.0 mg/kg/injection, schedule: Q01DX001 (ip), vehicle: saline 100 % of control | dose: 400.0 mg/kg/injection, schedule: Q01DX001 (ip), vehicle: saline 104 % of control

CN(C)CCNC(=Cc1ccc2ccccc2[n+]1C)NCCN(C)C
inactive: [1] 97 % of control | [2] 101 % of control

CC(C)CC(NC(=O)C(Cc1ccccc1)NC(=O)OCc1ccccc1)C(=O)O (stereo not drawn) (Cbz-Phe-Leu-OH; configuration not given here)
inactive: [3] 108 % of control | [4] 105 % of control

COC1C(O)CC(OC2C(C)OC(Oc3cc(O)c4c(O)c5c(cc4c3)C[C@@H]([C@H](OC)C(=O)[C@@H](O)[C@@H](C)O)[C@H](OC3CC(OC4CC(OC6CC(C)(O)C(O)C(C)O6)C(O)C(C)O4)C(O)C(C)O3)C5=O)CC2OC(C)=O)OC1C (stereo partly specified)
inactive: dose: 37.5 mg/kg/injection, schedule: Q01DX009 (ip), vehicle: saline 107 % of control | dose: 75.0 mg/kg/injection, schedule: Q01DX009 (ip), vehicle: saline 111 % of control | dose: 150.0 mg/kg/injection, schedule: Q01DX009 (ip), vehicle: saline 98 % of control | dose: 300.0 mg/kg/injection, schedule: Q01DX009 (ip), vehicle: saline 107 % of control

COc1cc2c(c(OC)c1OC)-c1ccc(SC)c(=O)cc1[C@@H](NC1OC(CO)C(O)C(O)C1O)CC2 (stereo partly specified)
inactive: dose: 3.12 mg/kg/injection, schedule: Q01DX009 (ip), vehicle: saline 107 % of control and 111 % of control | dose: 3.13 mg/kg/injection, schedule: Q01DX009 (ip), vehicle: saline 115 % of control | [11] 118 % of control [middle of 4 runs] | [12] 123 % of control | [13] 118 % of control and 122 % of control

O=C(CNOCc1ccccc1)OCc1ccccc1
inactive: dose: 12.5 mg/kg/injection, schedule: Q01DX009 (ip), vehicle: other 88 % of control | dose: 25.0 mg/kg/injection, schedule: Q01DX009 (ip), vehicle: other 96 % of control | dose: 50.0 mg/kg/injection, schedule: Q01DX009 (ip), vehicle: other 99 % of control | dose: 100.0 mg/kg/injection, schedule: Q01DX009 (ip), vehicle: other 97 % of control | dose: 200.0 mg/kg/injection, schedule: Q01DX009 (ip), vehicle: other 108 % of control

CC1=CC2=C(C=O)C(=O)[C@](C)(O)[C@@H](O)C2=CO1
inactive: dose: 12.5 mg/kg/injection, schedule: Q01DX009 (ip), vehicle: saline with Tween-80 109 % of control | dose: 25.0 mg/kg/injection, schedule: Q01DX009 (ip), vehicle: saline with Tween-80 118 % of control
